# According to ChEMBL document CHEMBL3638691, “Quinoline derivatives and MELK inhibitors containing the same” (2015):
# Several values for one entry are separate records, joined by “and”; a condition that tells them apart may be missing. Equal values may be shown once.
# Molecular target: Maternal embryonic leucine zipper kinase (Homo sapiens, UniProt Q14680)
# Test: Kinase Assay: MELK activity was determined in the presence or absence of compounds using fluorescein isothiocyanate-labeled (FITC-labeled) histone H3 peptide as a substrate. The extent of FITC-labeled histone H3 peptide phosphorylation was measured by immobilized metal ion affinity-based fluorescence polarization (IMAP) technology (Sportsman J R, et al., Assay Drug Dev. Technol. 2: 205-14, 2004) using IMAP FP Progressive Binding System (Molecular Devices Corporation). Test compounds were dissolved in DMSO at 12.5 mM and then serially diluted as the DMSO concentration in the assays to be 1%. The serially diluted compounds, 0.8 ng/micro-L PBK (Carna Biosciences) and 100 nM FITC-labeled histone H3 peptide were reacted in a reaction buffer (20 mM HEPES, 0.01% Tween-20, 0.3 mM MgCl2, 2 mM dithiothreitol, 50 micro-M ATP, pH 7.4) at room temperature for 1 hour. The reaction was stopped by the addition of three fold assay volume of progressive binding solution. Following 0.5 hour incubation at room temperature.
# Maternal embryonic leucine zipper kinase, sequence (Q14680 whole entry): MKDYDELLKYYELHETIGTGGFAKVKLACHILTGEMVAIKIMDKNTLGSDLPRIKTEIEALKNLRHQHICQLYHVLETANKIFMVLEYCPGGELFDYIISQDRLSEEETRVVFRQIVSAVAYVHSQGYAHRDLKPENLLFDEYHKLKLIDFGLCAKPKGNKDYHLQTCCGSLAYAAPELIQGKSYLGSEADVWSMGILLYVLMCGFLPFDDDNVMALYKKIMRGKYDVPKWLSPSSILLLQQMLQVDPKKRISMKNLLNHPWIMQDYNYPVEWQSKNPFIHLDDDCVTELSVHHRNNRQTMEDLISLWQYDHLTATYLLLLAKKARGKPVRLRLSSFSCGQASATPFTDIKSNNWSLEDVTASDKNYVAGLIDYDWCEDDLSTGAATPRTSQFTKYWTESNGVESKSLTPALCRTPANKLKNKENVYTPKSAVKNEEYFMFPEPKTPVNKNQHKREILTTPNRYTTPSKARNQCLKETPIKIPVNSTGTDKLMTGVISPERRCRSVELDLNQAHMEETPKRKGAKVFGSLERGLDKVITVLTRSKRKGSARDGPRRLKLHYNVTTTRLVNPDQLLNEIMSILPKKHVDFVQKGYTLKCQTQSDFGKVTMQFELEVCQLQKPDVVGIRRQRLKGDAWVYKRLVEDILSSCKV
row,SMILES,IC50
1,CN(C)C1CCN(C[C@H]2CC[C@H](Nc3c(C(=O)C4CC4)cnc4ccc(-c5cc(Cl)c(O)c(Cl)c5)cc34)CC2)C1 (stereo partly drawn),3 nM
2,Cc1cc(O)c(Cl)cc1-c1ccc2ncc(C(=O)C3CC3)c(N3CCC(CN(C)C)CC3)c2c1,60 nM
3,CN(C)C1CCN(c2ccc(Nc3c(S(C)(=O)=O)cnc4ccc(-c5cc(Cl)c(O)c(Cl)c5)cc34)cn2)C1 (stereo not drawn),2.4 nM
4,CN(C)C[C@H]1CC[C@H](Nc2c(C(=O)C3CCCC3)cnc3ccc(-c4cc(Cl)c(O)c(Cl)c4)cc23)CC1,3 nM
5,CC(=O)c1cnc2ccc(-c3cc(Cl)c(O)c(Cl)c3)cc2c1N[C@H]1CC[C@H](NC(=O)[C@@H](N)C(C)(C)C)CC1,4.2 nM
6,CN(C)CC1CCN(c2c(C(=O)C3CC3)cnc3ccc(-c4ccc5c(c4)CC(=O)N5)cc23)CC1,660 nM
7,CC(=O)c1cnc2cc(C)c(-c3cc(Cl)c(O)c(Cl)c3)cc2c1N[C@H]1CC[C@H](CN2CCC(N)C2)CC1 (stereo partly drawn),55 nM
8,CN(C)CC1CCN(c2c(C(=O)C3CC3)cnc3ccc(-c4ccc(OC(F)F)cc4)cc23)CC1,630 nM
9,COc1cc(-c2ccc3ncc(C(=O)C4CC4)c(Nc4ccc(C5CCCN5C)cn4)c3c2)cc(Cl)c1O (stereo not drawn),36 nM
10,CN1CCN(C[C@H]2CC[C@H](Nc3c(C(=O)C4CC4)cnc4ccc(-c5cc(Cl)c(O)c(Cl)c5)cc34)CC2)CC1,4.2 nM and 2.8 nM
11,CC(=O)c1cnc2ccc(-c3cc(Cl)c(O)c(Cl)c3)cc2c1Nc1ccc(S(=O)(=O)N2CCN(C)CC2)cc1,36 nM
12,CN(C)C[C@H]1CC[C@H](Nc2c(C(=O)C(C)(C)C)cnc3ccc(-c4cc(Cl)c(O)c(Cl)c4)cc23)CC1,22 nM
13,CN(C)C1CCN(Cc2ccc(Nc3c(C(=O)C4CC4)cnc4ccc(-c5cc(Cl)c(O)c(Cl)c5)cc34)cc2)C1 (stereo not drawn),7.2 nM and 5.6 nM
14,CC(=O)c1cnc2ccc(-c3cc(Cl)c(O)c(Cl)c3)cc2c1N[C@H]1CC[C@H](CN2CCN(C)CC2)CC1,5.5 nM
15,CC(=O)c1cnc2ccc(-c3cnc(C#N)nc3)cc2c1Nc1ccc(CN(C)C)cc1,2.2 nM
16,O=C(c1cnc2ccc(-c3cc(Cl)c(O)c(Cl)c3)cc2c1Nc1cccc(CCN2CCCC2)c1)C1CCCC1,9.6 nM
17,O=C(c1cnc2ccc(-c3cc(Cl)c(O)c(Cl)c3)cc2c1N[C@H]1CC[C@H](CN2CCCC2)CC1)C1CC1,1.4 nM
18,CCN(CC)CCO[C@H]1CC[C@H](Nc2c(C(C)=O)cnc3ccc(-c4cc(Cl)c(O)c(Cl)c4)cc23)CC1,2.9 nM
19,CS(=O)(=O)c1cnc2ccc(-c3cc(Cl)c(O)c(Cl)c3)cc2c1Nc1cccc(CCN2CCCC2)c1,2 nM
20,O=C(c1cnc2ccc(-c3cc(Cl)c(O)c(Cl)c3)cc2c1N1CCC(CCN2CCCC2)CC1)C1CC1,2.3 nM
21,CC(=O)c1cnc2ccc(-c3cc(Cl)c(O)c(Cl)c3)cc2c1N[C@H]1CCC[C@@H](CN2CCN(C)CC2)C1,2.7 nM
22,CS(=O)(=O)c1cnc2ccc(-c3cc(Cl)c(O)c(Cl)c3)cc2c1N[C@H]1CC[C@H](CN2CCCC2)CC1,2.7 nM
23,CN(C)Cc1ccc(Nc2c([S+](C)[O-])cnc3ccc(-c4cc(Cl)c(O)c(Cl)c4)cc23)cc1 (stereo not drawn),8.2 nM
24,COc1cc(-c2ccc3ncc(C#N)c(N[C@H]4CC[C@H](N(C)C)CC4)c3c2)cc(Cl)c1O,1.8 nM
25,CC(=O)c1cnc2ccc(-c3cc(Cl)c(O)c(Cl)c3)cc2c1N[C@H]1CC[C@H](CN(C)C)CC1,3.1 nM
26,O=C(c1cnc2ccc(-c3cc(Cl)c(O)c(Cl)c3)cc2c1Nc1ccc(CN2CCOCC2)cc1)C1CC1,20 nM
27,N#Cc1ncc(-c2ccc3ncc(C(=O)C4CC4)c(Nc4ccc(CN)cc4)c3c2)cn1,1.3 nM
28,CC(N)C(=O)N[C@H]1CC[C@H](Nc2c(C(=O)C(C)(C)C)cnc3ccc(-c4cc(Cl)c(O)c(Cl)c4)cc23)CC1 (stereo partly drawn),15 nM
